Columns and labels:
H3255 cells (EGFR L858R) = assay: Cell viability assay (WST-8), H3255; format: cell-based; conditions: Homo sapiens, NCI-H3255, WST-8, 48 h
[1] = system: H441 cells (wild-type EGFR); assay: Cell viability assay (WST-8), H441; conditions: WST-8, 48 h
[2] = system: H1975 cells (EGFR L858R/T790M); design: method as in PMID 27827863; conditions: previous study ref 25; cited from earlier work
wild-type EGFR-TK = wild-type EGFR-TK (Homo sapiens, UniProt P00533); assay: EGFR-TK inhibition assay (ADP-Glo), wild-type; format: biochemical; conditions: EGFR tyrosine kinase wild-type; read-out: IC50 Value, Wild-Type (WT)
[3] = target: EGFR-TK with L858R/T790M mutation (Homo sapiens, UniProt P00533, L858R/T790M); assay: EGFR-TK inhibition assay (ADP-Glo), L858R/T790M; format: biochemical

SMILES	IC50 (H3255 cells (EGFR L858R))	IC50 [1]	IC50 [2]	IC50 (wild-type EGFR-TK)	IC50 ([3]; EGFR tyrosine kinase L858R/T790M)	SI (WT: L858R/T790M) ([3]; selectivity index, wild-type IC50 to L858R/T790M IC50)
C=CC(=O)Nc1cccc(Nc2nc(Nc3ccc(N4CCN(C(C)=O)CC4)cc3OC)ncc2C(F)(F)F)c1 [CO-1686, Rociletinib, reference compound]	150 ± 20 nM	260 ± 40 nM	137 nM	–	–	–
C=CC(=O)Nc1cc(I)cc(Nc2nc(Nc3ccc(N4CCN(C(C)=O)CC4)cc3OC)ncc2C(F)(F)F)c1 [compound 10, N-(3-{[2-({4-[4-acetylpiperazin-1-yl]-2-methoxyphenyl}amino)-5-(trifluoromethyl)pyrimidin-4-yl]amino}-5-iodophenyl)acrylamide]	500 ± 210 nM	1840 ± 440 nM	–	> 10000 nM	310 ± 150 nM	>32

From publication PMC7356761 (Molecules, 2020)
